Experimental data published in ChEMBL document CHEMBL3045767, “Synthesis of novel 2-[4-(4-substitutedbenzamido/phenylacetamido)phenyl]benzothiazoles as antimicrobial agents” (2012).
Values after ≈ are worked out from the molar mass of the structure shown.

Key:
Format in all cases: functional
Escherichia coli [1] = experiment: Antibacterial activity against Escherichia coli ATCC 25922 after 24 hr by CLSI broth microdilution method
Klebsiella pneumoniae [2] = experiment: Antibacterial activity against Klebsiella pneumoniae RSKK 574 after 24 hr by CLSI broth microdilution method
Staphylococcus aureus [3] = experiment: Antibacterial activity against methicillin-resistant Staphylococcus aureus after 24 hr by CLSI broth microdilution method
Staphylococcus aureus [4] = experiment: Antibacterial activity against Staphylococcus aureus ATCC 25923 after 24 hr by CLSI broth microdilution method
Bacillus subtilis [5] = experiment: Antibacterial activity against ceftriaxon-resistant Bacillus subtilis after 24 hr by CLSI broth microdilution method
Klebsiella pneumoniae [6] = experiment: Antibacterial activity against Klebsiella pneumoniae producing extended spectrum beta lactamase enzyme after 24 hr by CLSI broth microdilution method
Pseudomonas aeruginosa [7] = experiment: Antibacterial activity against gentamicin-resistant Pseudomonas aeruginosa after 24 hr by CLSI broth microdilution method
Escherichia coli [8] = experiment: Antibacterial activity against Escherichia coli producing extended spectrum beta lactamase enzyme after 24 hr by CLSI broth microdilution method
Pseudomonas aeruginosa [9] = experiment: Antibacterial activity against Pseudomonas aeruginosa ATCC […] after 24 hr by CLSI broth microdilution method
Bacillus subtilis [10] = experiment: Antibacterial activity against Bacillus subtilis ATCC 6633 after 24 hr by CLSI broth microdilution method
Candida albicans [11] = experiment: Antifungal activity against Candida albicans ATCC 10231 after 48 hr by CLSI broth microdilution method; details: ATCC 10231, 48 h
Candida albicans [12] = experiment: Antifungal activity against Candida albicans
Pseudomonas aeruginosa [13] = experiment: Ratio of gentamycin sulfate MIC to compound MIC for gentamicin-resistant Pseudomonas aeruginosa
Pseudomonas aeruginosa [14] = experiment: Ratio of ofloxacin MIC to compound MIC for gentamicin-resistant Pseudomonas aeruginosa
Staphylococcus aureus [15] = experiment: Antibacterial activity against Staphylococcus aureus

Compound | MIC (Escherichia coli [1]; ATCC 25922, 24 h) [µg/mL] | MIC (Klebsiella pneumoniae [2]; RSKK 574, 24 h) [µg/mL] | MIC (Staphylococcus aureus [3]) [µg/mL] | MIC (Staphylococcus aureus [4]; ATCC 25923, 24 h) [µg/mL] | MIC (Bacillus subtilis [5]) [µg/mL] | MIC (Klebsiella pneumoniae [6]) [µg/mL] | MIC (Pseudomonas aeruginosa [7]) [µg/mL] | MIC (Escherichia coli [8]) [µg/mL] | MIC (Pseudomonas aeruginosa [9]; ATCC 25853, 24 h) [µg/mL] | MIC (Bacillus subtilis [10]; ATCC 6633, 24 h) [µg/mL] | MIC (Candida albicans [11]) [µg/mL] | MIC (Candida albicans [12]) [µg/mL] | Ratio (Pseudomonas aeruginosa [13]) | Ratio (Pseudomonas aeruginosa [14]) | MIC (Escherichia coli [1]) [µg/mL] | MIC (Klebsiella pneumoniae [2]) [µg/mL] | MIC (Staphylococcus aureus [4]) [µg/mL] | MIC (Pseudomonas aeruginosa [9]) [µg/mL] | MIC (Bacillus subtilis [10]) [µg/mL] | MIC (Staphylococcus aureus [15]) [µg/mL]
O=C(Cc1ccc(F)cc1)Nc1ccc(-c2nc3ccccc3s2)cc1 | 25 (≈ 69 µM) | 50 (≈ 138 µM) | 50 (≈ 138 µM) | 100 (≈ 276 µM) | 25 (≈ 69 µM) | 50 (≈ 138 µM) | 25 (≈ 69 µM) | 50 (≈ 138 µM) | 25 (≈ 69 µM) | 50 (≈ 138 µM) | 25 (≈ 69 µM) |  |  |  |  |  |  |  |  | 
CC1COc2c(N3CCN(C)CC3)c(F)cc3c(=O)c(C(=O)O)cn1c23 (stereo not given) [OFLOXACIN] | 0.19 (≈ 0.526 µM) | 0.19 (≈ 0.526 µM) | 1.56 (≈ 4.32 µM) | 0.19 (≈ 0.526 µM) | 3.12 (≈ 8.65 µM) | 3.12 (≈ 8.65 µM) | 50 (≈ 138 µM) | 6.25 (≈ 17.3 µM) | 6.25 (≈ 17.3 µM) | 0.19 (≈ 0.526 µM) |  |  |  |  |  |  |  |  |  | 
c1ccc(SCc2nc3ccccc3s2)cc1 [2-(PHENYLTHIOMETHYL)BENZO[D]THIAZOLE] |  |  |  |  |  |  |  |  |  |  |  | 3.12 (≈ 12.1 µM) |  |  |  |  |  |  |  | 
Clc1ccc(OCc2nc3ccccc3s2)cc1 |  |  |  |  |  |  |  |  |  |  |  | 3.12 (≈ 11.3 µM) |  |  |  |  |  |  |  | 
COc1ccc(CC(=O)Nc2ccc(-c3nc4ccccc4s3)cc2)cc1 | 12.5 (≈ 33.4 µM) | 12.5 (≈ 33.4 µM) | 12.5 (≈ 33.4 µM) | 50 (≈ 134 µM) | 50 (≈ 134 µM) | 50 (≈ 134 µM) | 6.25 (≈ 16.7 µM) | 25 (≈ 66.8 µM) | 25 (≈ 66.8 µM) | 12.5 (≈ 33.4 µM) | 12.5 (≈ 33.4 µM) |  | 3 | 3 |  |  |  |  |  | 
O=C(Nc1ccc(-c2nc3ccccc3s2)cc1)c1ccc(F)cc1 | 50 (≈ 144 µM) | 25 (≈ 71.8 µM) | 25 (≈ 71.8 µM) | 50 (≈ 144 µM) | 50 (≈ 144 µM) | 50 (≈ 144 µM) | 25 (≈ 71.8 µM) | 50 (≈ 144 µM) | 25 (≈ 71.8 µM) | 50 (≈ 144 µM) | 25 (≈ 71.8 µM) |  |  |  |  |  |  |  |  | 
CO[C@H]1/C=C/O[C@@]2(C)Oc3c(C)c(O)c4c(O)c(c(/C=N/N5CCN(C)CC5)c(O)c4c3C2=O)NC(=O)/C(C)=C\C=C\[C@H](C)[C@H](O)[C@@H](C)[C@@H](O)[C@@H](C)[C@H](OC(C)=O)[C@@H]1C [RIFAMPIN] |  |  | 1.56 (≈ 1.9 µM) | 0.0225 (≈ 0.0273 µM) | 3.12 (≈ 3.8 µM) |  |  |  |  | 0.19 (≈ 0.231 µM) |  |  |  |  |  |  |  |  |  | 
O=C(Nc1ccc(-c2nc3ccccc3s2)cc1)c1ccc(Cl)cc1 | 50 (≈ 137 µM) | 50 (≈ 137 µM) | 12.5 (≈ 34.3 µM) | 50 (≈ 137 µM) | 50 (≈ 137 µM) | 25 (≈ 68.5 µM) | 25 (≈ 68.5 µM) | 50 (≈ 137 µM) | 25 (≈ 68.5 µM) | 50 (≈ 137 µM) | 25 (≈ 68.5 µM) |  |  |  |  |  |  |  |  | 
O=C(Nc1ccc(-c2nc3ccccc3s2)cc1)c1ccc(Br)cc1 | 50 (≈ 122 µM) | 50 (≈ 122 µM) | 25 (≈ 61.1 µM) | 50 (≈ 122 µM) | 100 (≈ 244 µM) | 50 (≈ 122 µM) | 25 (≈ 61.1 µM) | 50 (≈ 122 µM) | 25 (≈ 61.1 µM) | 50 (≈ 122 µM) | 25 (≈ 61.1 µM) |  |  |  |  |  |  |  |  | 
GENTAMICIN SULFATE |  |  | 6.25 |  | 0.19 | 6.25 | 50 | 12.5 |  |  |  |  |  |  | 0.78 | 0.39 | 0.78 | 1.56 | 0.39 | 
CC1(C)S[C@@H]2[C@H](NC(=O)[C@H](N)c3ccccc3)C(=O)N2[C@H]1C(=O)O.O.O.O [AMPICILLIN TRIHYDRATE] | 3.12 |  |  | 0.78 | 0.78 |  |  | 400 |  | 0.78 |  |  |  |  |  |  |  |  |  | 
O=C(Cc1ccc(Cl)cc1)Nc1ccc(-c2nc3ccccc3s2)cc1 | 50 (≈ 132 µM) | 50 (≈ 132 µM) | 50 (≈ 132 µM) | 50 (≈ 132 µM) | 50 (≈ 132 µM) | 50 (≈ 132 µM) | 25 (≈ 66 µM) | 50 (≈ 132 µM) | 25 (≈ 66 µM) | 50 (≈ 132 µM) | 25 (≈ 66 µM) |  |  |  |  |  |  |  |  | 
c1ccc2sc(CCC3CCCCC3)nc2c1 |  |  |  |  |  |  |  |  |  |  |  | 3.12 (≈ 12.7 µM) |  |  |  |  |  |  |  | 
CCc1ccc(C(=O)Nc2ccc(-c3nc4ccccc4s3)cc2)cc1 | 25 (≈ 69.7 µM) | 25 (≈ 69.7 µM) | 6.25 (≈ 17.4 µM) | 50 (≈ 139 µM) | 50 (≈ 139 µM) | 50 (≈ 139 µM) | 25 (≈ 69.7 µM) | 50 (≈ 139 µM) | 25 (≈ 69.7 µM) | 50 (≈ 139 µM) | 12.5 (≈ 34.9 µM) |  |  |  |  |  |  |  |  | 
C[C@@H]1[C@H](O)[C@@H](C)/C=C/C=C/C=C/C=C/C=C/C=C/C=C/[C@H](O[C@@H]2O[C@H](C)[C@@H](O)[C@H](N)[C@@H]2O)C[C@@H]2O[C@](O)(C[C@@H](O)C[C@@H](O)[C@H](O)CC[C@@H](O)C[C@@H](O)CC(=O)O[C@H]1C)C[C@H](O)[C@H]2C(=O)O [AMPHOTERICIN B] |  |  |  |  |  |  |  |  |  |  | 0.78 (≈ 0.844 µM) |  |  |  |  |  |  |  |  | 
c1ccc(OCc2nc3ccccc3s2)cc1 [2-(PHENOXYMETHYL)BENZOTHIAZOLE] |  |  |  |  |  |  |  |  |  |  |  | 3.12 (≈ 12.9 µM) |  |  |  |  |  |  |  | 3.12 (≈ 12.9 µM)
O=C(Cc1ccc(Br)cc1)Nc1ccc(-c2nc3ccccc3s2)cc1 | 25 (≈ 59.1 µM) | 50 (≈ 118 µM) | 25 (≈ 59.1 µM) | 50 (≈ 118 µM) | 50 (≈ 118 µM) | 50 (≈ 118 µM) | 25 (≈ 59.1 µM) | 50 (≈ 118 µM) | 12.5 (≈ 29.5 µM) | 50 (≈ 118 µM) | 12.5 (≈ 29.5 µM) |  |  |  |  |  |  |  |  | 
O=C(Nc1ccc(-c2nc3ccccc3s2)cc1)c1ccc([N+](=O)[O-])cc1 | 25 (≈ 66.6 µM) | 50 (≈ 133 µM) | 12.5 (≈ 33.3 µM) | 50 (≈ 133 µM) | 50 (≈ 133 µM) | 50 (≈ 133 µM) | 25 (≈ 66.6 µM) | 50 (≈ 133 µM) | 25 (≈ 66.6 µM) | 50 (≈ 133 µM) | 12.5 (≈ 33.3 µM) |  |  |  |  |  |  |  |  | 
Cc1ccc(CC(=O)Nc2ccc(-c3nc4ccccc4s3)cc2)cc1 | 50 (≈ 139 µM) | 25 (≈ 69.7 µM) | 25 (≈ 69.7 µM) | 50 (≈ 139 µM) | 50 (≈ 139 µM) | 50 (≈ 139 µM) | 25 (≈ 69.7 µM) | 50 (≈ 139 µM) | 25 (≈ 69.7 µM) | 50 (≈ 139 µM) | 25 (≈ 69.7 µM) |  |  |  |  |  |  |  |  | 
OC(Cn1cncn1)(Cn1cncn1)c1ccc(F)cc1F [FLUCONAZOLE] |  |  |  |  |  |  |  |  |  |  | 0.78 (≈ 2.55 µM) |  |  |  |  |  |  |  |  | 
c1ccc(CCc2nc3ccccc3s2)cc1 [2-PHENETHYLBENZO[D]THIAZOLE] |  |  |  |  |  |  |  |  |  |  |  | 3.12 (≈ 13 µM) |  |  |  |  |  |  |  | 
CC(C)(C)c1ccc(C(=O)Nc2ccc(-c3nc4ccccc4s3)cc2)cc1 | 25 (≈ 64.7 µM) | 25 (≈ 64.7 µM) | 12.5 (≈ 32.3 µM) | 50 (≈ 129 µM) | 100 (≈ 259 µM) | 50 (≈ 129 µM) | 25 (≈ 64.7 µM) | 50 (≈ 129 µM) | 25 (≈ 64.7 µM) | 50 (≈ 129 µM) | 12.5 (≈ 32.3 µM) |  |  |  |  |  |  |  |  | 
